What all share (assay): NCI-60 cell line screen, 48 h
Test [1] has as its system ACHN renal.
Test [2] concerns DU-145 prostate.
For test [3], the system named is HCC-2998 colon.
Test [4] deals with HOP-62 NSCLC.
Test [5] deals with HS 578T breast.
Test [6] has as its system M14 melanoma.
Test [7] concerns MDA-MB-231 breast.
The subject of test [8] is MDA-MB-435.
Test [9] has as its system SF-295 CNS.
Test [10] deals with SK-OV-3 ovarian.

Several values for one entry are separate records, joined by “and”; a condition that tells them apart may be missing. Equal entries are not always repeated.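 Tested at 5 concentrations; 48 h exposure; 96-well plates; endpoints linearly interpolated, else capped at highest concentration. GI50 marks 50% less growth. Definition used: TGI = concentration required for complete inhibition of growth.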 Where only a bound is given, the exact number is not on record here.

Take `C=C(Cl)[C@@](Cl)(CBr)CC[C@@H](Br)C(C)(C)Cl`: the GI50 in test [1] is 0.184 µM; in test [2] it was 0.213 µM; in [3], 1.27 µM; in test [5] it was 0.208 µM; in test [7] it was 0.577 µM; in test [8], 2.5 µM. In addition, the GI50 in test [10] was 8 µM. For the same compound, the TGI in [1] is 0.562 µM and 0.47 µM; in test [2], 1.18 µM and 1.82 µM; in test [3] it was 3.12 µM and 1.65 µM; in [4], 0.606 µM and 0.304 µM; in test [5] it was 0.741 µM and 2.1 µM; in test [6], 40.9 µM and 28.8 µM. Moreover, the TGI in test [8] was 39.5 µM and 5.5 µM; in test [9], 2.46 µM and 0.452 µM; in [10], 22.2 µM and 26.3 µM.
`COc1ccc(/C=C/C(C)=N/OCC(=O)Nc2ccc(Cl)cc2)cc1`: the GI50 is 1.94 µM in test [1]; 4.11 µM in test [2]; 3.75 µM in [3]; 5.06 µM in test [4]; 5.85 µM in test [5]; 3.01 µM in [6]. In addition, the GI50 is 1.76 µM in test [7], 2.44 µM in test [8], 2.96 µM in test [9] and 5.27 µM in [10]. Further, the TGI in test [1] is above 38.9 µM; in test [2], 78.6 µM; in test [3] it was 15.8 µM; in test [4] it was 27.5 µM; in [5], 78.5 µM; in test [6], 14.1 µM. Besides, the TGI came out at 8.99 µM in test [7], 9.76 µM in [8], 14.9 µM in test [9] and 42.4 µM in test [10].
`NC(=O)c1ncn(C2OC(CO)C(O)C2O)c1N` (stereo unspecified): the GI50 in test [1] was above 100 µM; in [2], 72.2 µM; in test [3], above 100 µM; in test [4], above 100 µM; in [5], above 100 µM; in [6] it was above 100 µM. The GI50 in test [7], in test [8], in test [9] and in test [10] was above 100 µM throughout. In addition, the TGI in test [1], in [2], in test [3], in [4], in test [5] and in test [6] was above 100 µM throughout. Also, the TGI in [7], in test [8], in test [9] and in test [10] was above 100 µM each time.
For `O=C(Nc1ccc(C(F)(F)F)cc1[N+](=O)[O-])c1cccnc1`, the TGI in [1], in test [2], in [3], in test [4], in test [5] and in [6] was above 100 µM in each case. Also, the TGI in test [7] is above 100 µM; in test [8], 2.5 µM; in test [9], 23.9 µM; in [10], above 100 µM.
Take `Cn1ccnc1C(=O)/C=C/c1ccc(C(=O)Nc2c(F)c(F)c(F)c(F)c2F)cc1`: the GI50 in [1] is 1.65 µM; in test [2], 1.64 µM; in test [3] it was 1.64 µM; in test [4] it was 2.77 µM; in [5], 2.1 µM; in test [6] it was 1.77 µM. Besides, the GI50 is 2.27 µM in [7], 2.02 µM in [8], 1.85 µM in test [9] and 3.24 µM in [10]. Besides, the TGI in test [1] is 3.01 µM; in [2], 3.11 µM; in [3] it was 3.14 µM; in [4] it was 8.71 µM; in test [5], 6.44 µM; in test [6] it was 3.7 µM. Also, the TGI was 6.7 µM in [7], 4.68 µM in test [8], 3.64 µM in [9] and 10.1 µM in test [10].
Turning to `C=CCN=C(N/N=C/c1ccc([N+](=O)[O-])o1)NS(=O)(=O)c1cc(C(=O)Nc2ccccc2)c(Cl)cc1SCC(N)=O`, the GI50 in [1] was above 100 µM; in test [2], 22.4 µM; in [3], 20.7 µM; in [4], 53.9 µM; in [5] it was 15.6 µM; in [6], 69.8 µM. The GI50 was 14 µM in [7], 17.9 µM in test [8], above 100 µM in test [9] and above 100 µM in test [10]. Further, the TGI in test [1] is above 100 µM; in [2], 71.9 µM; in test [3], 40.6 µM; in test [4] it was above 100 µM; in test [5], 66.3 µM; in [6] it was above 100 µM. For the same compound, the TGI is 50.8 µM in [7], 36.7 µM in test [8], above 100 µM in [9] and above 100 µM in [10].

The values above are taken from PubChem BioAssay (NCI).
